From PMC7918738, “Microtubule Destabilizing Sulfonamides as an Alternative to Taxane-Based Chemotherapy” (International Journal of Molecular Sciences, 2021)
Converted amounts (≈) assume the structure as drawn. Where two headings read alike, the source gives them in different places. Blank lines part the entries; values can stand above or below the compound they belong to.

Tests used:
[1] = system: HT-29 (colon adenocarcinoma); test: Antiproliferative activity against CA-4-resistant HT-29 with or without verapamil (sensitivity to MDR pumps, XTT); format: cell-based, human; conditions: Homo sapiens, read-out: Antiproliferative Activity IC50 HT-29
Excerpt: Detecting changes in drug potency when inhibiting MDR-mediated efflux reflect that these transporters reduce the intracellular drug concentration. HT-29 has been reported to express moderate levels of MDR1, accounting for a resistant phenotype. A comparison of the antiproliferative IC50 values of each MDS in the presence or absence of verapamil provides an estimate of the susceptibility of each compound to efflux pumps.
(§1) MCF7 (human breast carcinoma), SKOV-3 (human ovarian carcinoma), OVCAR-3 (human ovarian carcinoma), OVCAR-8 (human ovarian carcinoma), and HeLa (human cervical carcinoma) cell lines were cultured in Dulbecco’s Modified Eagle’s Medium (DMEM) (Gibco, Thermo Fischer Scientific) containing 10% (v/v) heat-inactivated fetal bovine serum (HIFBS) (Lonza-Cambrex, Karlskoga, Sweden), 2 mM L-glutamine (Lonza-Cambrex, Karlskoga, Sweden), 100 μg/mL streptomycin, and 100 IU/mL penicillin (Lonza-Cambrex) at 37 °C in humidified 95% air and 5% CO2. HT-29 (human colon carcinoma), IGROV-1 (human ovarian carcinoma), and A2780 (human ovarian carcinoma) cell lines were cultured in RPMI 1640 medium (Gibco, Thermo Fischer Scientific) supplemented with 10% HIFBS, 100 μg/mL streptomycin, and 100 IU/mL penicillin at 37 °C in humidified 95% air and 5% CO2 atmosphere. The presence of mycoplasma was routinely checked with MycoAlert kit (Lonza-Cambrex) and only mycoplasma-free cells were used in the experiments. Ovarian tumor cell lines were originally acquired from Dr Atanasio Pandiella from Centro de Investigación del Cáncer (CIC), Salamanca, Spain. HeLa, HT-29 and MCF7 tumor cell lines were provided by Dr Faustino Mollinedo from Centro de Investigaciones Biológicas Margarita Salas, Madrid, Spain.
MCF7, HeLa, and HT-29 cell proliferation, when treated with the corresponding compounds, were determined using the XTT (sodium 3’-[1(phenylaminocarbonyl)-3,4-tetrazolium]-bis(4-methoxy-6-nitro)-benzenesulfonic acid hydrate) cell proliferation kit (Roche Molecular Biochemicals, Mannheim, Germany). A freshly prepared mixture of XTT labeling reagent with 0.02% (v/v) PMS (N-methyl-dibenzopyrazine methyl sulfate) electron coupling reagent was added to cells (50 µL/well in 96-well plates, total volume of 160 µL/well). Cells were incubated under standard culture conditions for 4 h (MCF7 and HeLa) or 6 h (HT-29). The absorbance of the formazan product generated was measured at 450 nm using a multi-well plate reader. SKOV-3, OVCAR-3, OVCAR-8, IGROV-1, A-2780 cell proliferation, when treated with the corresponding compound, were determined using MTT (3-(4,5-dimethylthiazol-2-yl)-2,5-diphenyl-2H-tetrazolium bromide) (Sigma-Aldrich, St. Louis, MO, USA). MTT in Phosphate Buffer Saline (PBS) (5 mg/ml) was added to cells (110 µL/well in 24-well plates, total volume of 1110 µL/well). After 1 hour of incubation, the medium was aspirated, and formazan violet crystals were dissolved in dimethyl sulfoxide (DMSO) (500 µL/well). Absorbance was measured at 570 nm in a plate reader (Ultra Evolution, Tecan, Männedorf, Suiza). To determine cell viability, cells in exponential growth phase were seeded (100 µL/well in 96-well plates and 1000 µL/well in 24-well plates) with appropriate cell line concentration (1.5·10^4 cells/mL for MCF7 and HeLa, 3·10^4 cells/mL for HT-29, and 1·10^4 cells/mL for SKOV-3, OVCAR-3, OVCAR-8, IGROV-1, and A-2780) in complete RPMI 1640 or DMEM medium at 37°C and 5% CO2 atmosphere. After 24 h incubation, to allow cells to attach to the plates, all compounds were added at 1 µM concentration and the effect on the proliferation was evaluated 72 h post-treatment. […] Non-linear curves fitting the experimental data were carried out for each compound. Compounds were dissolved in DMSO and the final solvent concentrations never exceeded 0.5% (v/v). The control wells included […] with 0.5% (v/v) DMSO and the positive control. 10 µM verapamil was included as a control for the HT-29 cell line.

[2] = system: HeLa (cervix epithelioid carcinoma); test: Antiproliferative activity against HeLa (XTT colorimetric method); format: cell-based; conditions: Homo sapiens, 72 h treatment
Description: The in vitro antiproliferative activity of MDS at 1 µM after 72 h treatments was evaluated by a colorimetric method against the human tumor cell lines HeLa (cervix epithelioid carcinoma) and MCF7 (breast adenocarcinoma). Compounds showing more than 40% inhibition at 1 µM in at least three independent assays were evaluated in a range of concentrations between 0.1 nM and 10 µM for the determination of half-maximal inhibitory concentrations (IC50) (Table 1). Paclitaxel, CA-4, and ABT-751 were used as references.
as §1
MCF7, HeLa, and HT-29 cell proliferation, when treated with the corresponding compounds, were determined using the XTT (sodium 3’-[1(phenylaminocarbonyl)-3,4-tetrazolium]-bis(4-methoxy-6-nitro)-benzenesulfonic acid hydrate) cell proliferation kit (Roche Molecular Biochemicals, Mannheim, Germany). A freshly prepared mixture of XTT labeling reagent with 0.02% (v/v) PMS (N-methyl-dibenzopyrazine methyl sulfate) electron coupling reagent was added to cells (50 µL/well in 96-well plates, total volume of 160 µL/well). Cells were incubated under standard culture conditions for 4 h (MCF7 and HeLa) or 6 h (HT-29). The absorbance of the formazan product generated was measured at 450 nm using a multi-well plate reader. SKOV-3, OVCAR-3, OVCAR-8, IGROV-1, A-2780 cell proliferation, when treated with the corresponding compound, were determined using MTT (3-(4,5-dimethylthiazol-2-yl)-2,5-diphenyl-2H-tetrazolium bromide) (Sigma-Aldrich, St. Louis, MO, USA). MTT in Phosphate Buffer Saline (PBS) (5 mg/ml) was added to cells (110 µL/well in 24-well plates, total volume of 1110 µL/well). After 1 hour of incubation, the medium was aspirated, and formazan violet crystals were dissolved in dimethyl sulfoxide (DMSO) (500 µL/well). Absorbance was measured at 570 nm in a plate reader (Ultra Evolution, Tecan, Männedorf, Suiza). To determine cell viability, cells in exponential growth phase were seeded (100 µL/well in 96-well plates and 1000 µL/well in 24-well plates) with appropriate cell line concentration (1.5·10^4 cells/mL for MCF7 and HeLa, 3·10^4 cells/mL for HT-29, and 1·10^4 cells/mL for SKOV-3, OVCAR-3, OVCAR-8, IGROV-1, and A-2780) in complete RPMI 1640 or DMEM medium at 37°C and 5% CO2 atmosphere. After 24 h incubation, to allow cells to attach to the plates, all compounds were added at 1 µM concentration and the effect on the proliferation was evaluated 72 h post-treatment. Compounds showing antiproliferative effects at tested concentration were selected for IC50 calculation (50% inhibitory concentration with respect to the untreated controls) from 10^−5 to 10^−10 M concentration. Non-linear curves fitting the experimental data were carried out for each compound. […]

[3] = Aqueous solubility, saturation shake-flask method, UV absorbance; conditions: phosphate buffer, pH 7, aqueous buffer, thermodynamic from solid
Description: UV absorbance at three maximum absorbance wavelengths of selected compounds was measured after 48 h shaking and subsequent microfiltration.
The aqueous solubility of the sulfonamides was determined using an approach based on the saturation shake-flask method. Tested compounds (1–2 mg) were stirred in pH 7.0 phosphate buffer (300 µL) for 48 h at room temperature. The resulting suspension was filtered over a 45 µm filter to discard insoluble residues, and the concentration in the supernatant was measured by UV absorbance. To determine the concentration, a scan between 270 and 400 nm was performed in a Helios-α UV-320 Spectrophotometer (Thermo-Spectronic, Thermo Fischer Scientific, Waltham, MA, USA) for each tested compound. Then, three maximum wavelengths of absorbance per compound were selected from the previous scan and calibration curves were performed at these three wavelengths. Solubility results are given as the average of the three measurements.

[4] = HT-29, 72 h, XTT, without verapamil

SMILES: COc1ccc(/C=C\c2cc(OC)c(OC)c(OC)c2)cc1O [Combretastatin A-4, reference compound]
- IC50 [1, 4]: 0.305 µM
- IC50 [2]: 0.002 µM

SMILES: COc1ccc(S(=O)(=O)N(c2cc(OC)c(OC)c(OC)c2)S(=O)(=O)c2ccc(OC)cc2)cc1 [Compound 1b]
- IC50 [1, 4]: > 1 µM
- IC50 [2]: > 1 µM
- solubility at 48 h [3]: 108 µg/mL (≈ 206 µM)

SMILES: COc1ccc(S(=O)(=O)N(CCBr)c2cc(OC)c(OC)c(OC)c2)cc1 [Compound 4]
- IC50 ([1]; HT-29, 72 h): 0.503 µM
- IC50 [2]: 0.094 µM

SMILES: COc1ccc(S(=O)(=O)N(CC#N)c2cc(OC)c(OC)c(OC)c2)cc1 [Compound 6]
- IC50 [1, 4]: 0.23 µM
- IC50 [2]: 0.143 µM
- solubility at 48 h [3]: 33 µg/mL (≈ 84.1 µM)

SMILES: COc1ccc(S(=O)(=O)N(Cc2ccccc2)c2cc(OC)c(OC)c(OC)c2)cc1 [Compound 9]
- IC50 [1, 4]: > 1 µM
- IC50 [2]: 0.75 µM

SMILES: COc1ccc(S(=O)(=O)N(C(=O)OCc2ccccc2)c2cc(OC)c(OC)c(OC)c2)cc1 [Compound 10]
- IC50 [1, 4]: > 1 µM
- IC50 [2]: > 1 µM

SMILES: COc1ccc(S(=O)(=O)Nc2cc(OC)c(OC)c(OC)c2[N+](=O)[O-])cc1 [Compound 11]
- IC50 [1, 4]: > 1 µM
- IC50 [2]: > 1 µM
- solubility at 48 h [3]: 88 µg/mL (≈ 221 µM)

SMILES: COc1ccc(S(=O)(=O)Nc2cc(OC)c(OC)c(OC)c2N)cc1 [Compound 12]
- IC50 [1, 4]: > 1 µM
- IC50 [2]: > 1 µM
- solubility at 48 h [3]: 158 µg/mL (≈ 429 µM)

SMILES: COc1ccc(S(=O)(=O)N(C)c2cc(OC)c(OC)c(OC)c2N)cc1 [Compound 13]
- IC50 [1, 4]: > 1 µM
- IC50 [2]: > 1 µM

SMILES: COc1ccc(S(=O)(=O)Nc2cc(OC)c(OC)c(OC)c2NCN(c2cc(OC)c(OC)c(OC)c2N)S(=O)(=O)c2ccc(OC)cc2)cc1 [Compound 14]
- IC50 [1, 4]: > 1 µM
- IC50 [2]: > 1 µM

SMILES: COc1ccc(S(=O)(=O)Nc2cc(OC)c(OC)c(OC)c2NC(C)=O)cc1 [Compound 15]
- IC50 [1, 4]: > 1 µM
- IC50 [2]: > 1 µM
- solubility at 48 h [3]: 230 µg/mL (≈ 560 µM)

SMILES: COc1ccc(S(=O)(=O)Nc2cc(OC)c(OC)c(OC)c2NC=O)cc1 [Compound 17]
- IC50 [1, 4]: > 1 µM
- IC50 [2]: > 1 µM

SMILES: COc1ccc(S(=O)(=O)Nc2cc(OC)c(OC)c(OC)c2N(C)C)cc1 [Compound 18]
- IC50 [1, 4]: > 1 µM
- IC50 [2]: > 1 µM

SMILES: COc1ccc(S(=O)(=O)N(C)c2cc(OC)c(OC)c(OC)c2)cc1N(C)C [Compound 48b]
- IC50 ([1]; HT-29, 72 h): > 1 µM
- IC50 [2]: > 1 µM

Results, then the compound that gave them:

- IC50 [1, 4]: > 1 µM
- IC50 [2]: > 1 µM
SMILES: COc1ccc(S(=O)(=O)N(C)c2cc(OC)c(OC)c(OC)c2N(C)C)cc1 [Compound 19]

- IC50 [1, 4]: > 1 µM
- IC50 [2]: > 1 µM
- solubility at 48 h [3]: 87 µg/mL (≈ 201 µM)
SMILES: COc1ccc(S(=O)(=O)Nc2cc(OC)c(OC)c(OC)c2Br)cc1 [Compound 20]

- IC50 [1, 4]: > 1 µM
- IC50 [2]: > 1 µM
- solubility at 48 h [3]: 357 µg/mL (≈ 679 µM)
SMILES: COc1ccc(S(=O)(=O)Nc2cc(OC)c(OC)c(OC)c2NC(=O)CNC(=O)OC(C)(C)C)cc1 [Compound 21]

- IC50 [1, 4]: > 1 µM
- IC50 [2]: > 1 µM
- solubility at 48 h [3]: 41 µg/mL (≈ 108 µM)
SMILES: COc1ccc(S(=O)(=O)n2nnc3c(OC)c(OC)c(OC)cc32)cc1 [Compound 23]

- IC50 [1, 4]: > 1 µM
- IC50 [2]: > 1 µM
SMILES: COc1ccc(S(=O)(=O)n2cnc3c(OC)c(OC)c(OC)cc32)cc1 [Compound 24]

- IC50 [1, 4]: > 1 µM
- IC50 [2]: > 1 µM
- solubility at 48 h [3]: 25 µg/mL (≈ 70.9 µM)
SMILES: COc1cc(N(C)S(=O)(=O)c2ccc(N)cc2)cc(OC)c1OC [Compound 27]

- IC50 [1, 4]: 0.887 µM
- IC50 [2]: 0.23 µM
- solubility at 48 h [3]: 15 µg/mL (≈ 40.9 µM)
SMILES: COc1cc(NS(=O)(=O)c2ccc(N(C)C)cc2)cc(OC)c1OC [Compound 28]

- IC50 [1, 4]: 0.863 µM
- IC50 [2]: 0.099 µM
SMILES: CCOC(=O)CN(c1cc(OC)c(OC)c(OC)c1)S(=O)(=O)c1ccc(N(C)C)cc1 [Compound 33]

- IC50 [1, 4]: 0.165 µM
- IC50 [2]: 0.33 µM
SMILES: COc1cc(N(Cc2ccccc2)S(=O)(=O)c2ccc(N(C)C)cc2)cc(OC)c1OC [Compound 35a]

- IC50 [1, 4]: 0.69 µM
- IC50 [2]: > 1 µM
SMILES: COc1cc(N(C(=O)OCc2ccccc2)S(=O)(=O)c2ccc(N(C)C)cc2)cc(OC)c1OC [Compound 35b]

- IC50 [1, 4]: > 1 µM
- IC50 [2]: > 1 µM
SMILES: COc1ccc(S(=O)(=O)Nc2cc(OC)c(OC)c(OC)c2)cc1[N+](=O)[O-] [Compound 40]

- IC50 [1, 4]: 0.113 µM
- IC50 [2]: 0.21 µM
SMILES: CCOC(=O)CNc1cc(S(=O)(=O)N(C)c2cc(OC)c(OC)c(OC)c2)ccc1OC [Compound 46]

- IC50 [1, 4]: > 1 µM
- IC50 [2]: > 1 µM
SMILES: CCOC(=O)CNc1cc(S(=O)(=O)N(CC(=O)OCC)c2cc(OC)c(OC)c(OC)c2)ccc1OC [Compound 47]

- IC50 [1, 4]: > 1 µM
- IC50 [2]: 0.44 µM
SMILES: CNc1cc(S(=O)(=O)N(C)c2cc(OC)c(OC)c(OC)c2)ccc1OC [Compound 48a]
